Legend:
KB, HCT, and Bel cells = test: MTT antitumor activity in vitro, cell line not singled out; assay type: cell-based, human; conditions: bioassay at 1, 10, and 50 μg/mL
Description: (§1) The antitumor activity in vitro was assayed by the MTT method using DMSO as solvent.

[1] = system: KB (human nasopharyngeal cancer) cells; test: MTT antitumor activity in vitro, KB cells; assay type: cell-based; conditions: 50 μg/mL, DMSO as solvent
Description: (§2) The antitumor activity in vitro was assayed by the MTT method using DMSO as solvent. The tumor inhibition yield and IC50 of the five organogermanium sesquioxides and Ge-132 against KB (human nasopharyngeal cancer), HCT (human colonic cancer), and Bel (human liver cancer) cells were measured.

[2] = system: Bel (human liver cancer) cells; test: MTT antitumor activity in vitro, Bel cells; assay type: cell-based; conditions: 50 μg/mL, DMSO as solvent
Description: as §1

[3] = system: HCT (human colonic cancer) cells; test: MTT antitumor activity in vitro, HCT cells; assay type: cell-based; conditions: 50 μg/mL, DMSO as solvent
Description: as §2

[4] = Solubility of the powders; assay type: physicochemical; conditions: 2 mol/L of NaOH solution
[5] = Biodistribution in nude mice bearing human colonic cancer xenografts; assay type: in vivo, Balb/c nude mice; conditions: for Biodistribution, uptake: Tumor; for Biodistribution, uptake / T/NT (ratio of ID %/g of tumor over normal tissue): n = 3; for T/NT (ratio of ID %/g of tumor over normal tissue): 20 h
Description: Experimental animals (Balb/c nude mice) were provided by Experimental Animal Department of Chinese Academy of Medical Sciences. The nude mice were implanted with human colonic carcinoma cells (LoVo cells). When the tumor size was about 1 cm, the mice were used for the experiment.
Twelve nude mice bearing human colonic cancer xenografts were injected in tail vein with 555~740 kBq of ^99mTc labeled compound 5. Three animals were sacrified at 1-hour, 3-hour, 6-hour, and 20-hour postinjection, respectively. Tissues and organs were excised, rinsed, weighted, and counted in a γ counter. The uptake percentage of the injected dose per gram of the measured organ (ID %/g) and the ratio of ID %/g of tumor over normal tissues (T/NT) were calculated.

Biodistribution, uptake ([5]; 1 h postinjection) [% ID/g]	Biodistribution, uptake ([5]; 3 h postinjection) [% ID/g]	Biodistribution, uptake ([5]; 6 h postinjection) [% ID/g]	Biodistribution, uptake ([5]; 20 h postinjection) [% ID/g]	clearance in tumor ([5]; nude mice, tail vein injection)	T/NT (ratio of ID %/g of tumor over normal tissue) ([5]; tumor versus Blood)	T/NT (ratio of ID %/g of tumor over normal tissue) ([5]; tumor versus Brain)	T/NT (ratio of ID %/g of tumor over normal tissue) ([5]; tumor versus Muscle)	Compound	antitumor activity against cancer cells (in words) (KB, HCT, and Bel cells)	Inhibition yield [1] [%]	Inhibition yield [2] [%]	Inhibition yield [3] [%]	solubility [4]
–	–	–	–	–	–	–	–	O=C1OC(=O)C2C3OC(C[CH]3[Ge](=[O])[O][Ge](=[O])[CH]3CC4OC3C3C(=O)OC(=O)C43)C12 (centres unmarked) [Compound 1]	no antitumor activity	0	0	0	–
–	–	–	–	–	–	–	–	O=C1NC(=O)C2C3OC(C[CH]3[Ge](=[O])[O][Ge](=[O])[CH]3CC4OC3C3C(=O)NC(=O)C43)C12 (centres unmarked) [Compound 2]	no antitumor activity	0	0	0	–
–	–	–	–	–	–	–	–	NN1C(=O)C2C3C[CH]([Ge](=[O])[O][Ge](=[O])[CH]4CC5OC4C4C(=O)N(N)C(=O)C54)C(O3)C2C1=O (centres unmarked) [Compound 3]	no antitumor activity	0	0	0	easily soluble
–	–	–	–	–	–	–	–	CCOC(=O)CCC(NC(=O)C[CH2][Ge](=[O])[O][Ge](=[O])[CH2]CC(=O)NC(CCC(=O)OCC)C(=O)OCC)C(=O)OCC (centres unmarked) [Compound 4, Germanium Sesquioxide of Ethyl Glutamate]	certain activities	0	–	41.5	–
0.73	0.97	0.87	0.62	relatively low	3.01	18.30	5.81	NC(=S)NCC[CH2][Ge](=[O])[O][Ge](=[O])[CH2]CCNC(N)=S [Compound 5, γ-thiocarbamido propyl germanium sesquioxide]	certain activities	92.9	70.9	84.9	easily soluble
–	–	–	–	–	–	–	–	O=C(O)C[CH2][Ge](=[O])[O][Ge](=[O])[CH2]CC(=O)O [Ge-132, carboxyethylgermanium sesquioxide, reference compound]	–	0	0	31.4	–
